Measured values from patent US20220370429A1, “AROMATIC HETEROCYCLIC COMPOUND HAVING TRICYCLIC STRUCTURE, AND PREPARATION METHOD THEREFOR AND APPLICATION THEREOF” (SHANGHAI LONGWOOD BIOPHARMACEUTICALS CO., LTD., priority 2019, published 2022).

molecular target: T1, PD-1/PD-L1 (Homo sapiens, UniProt Q9NZQ7); experiment: PD-1/PD-L1 Homogeneous Time-Resolved Fluorescence (HTRF) Binding Assay; conditions: 25° C., PBS pH 7.4, ~3 nM PD1, 10 nM PD-L1
T1 construct: Recombinant human PD-L1 protein (19-238) with a His-tagged at the C-terminus; purchased AcroBiosystems PD1-H5229 (PD-L1); PD1-H5257 (PD-1)
T1 sequence (Q9NZQ7 19-238): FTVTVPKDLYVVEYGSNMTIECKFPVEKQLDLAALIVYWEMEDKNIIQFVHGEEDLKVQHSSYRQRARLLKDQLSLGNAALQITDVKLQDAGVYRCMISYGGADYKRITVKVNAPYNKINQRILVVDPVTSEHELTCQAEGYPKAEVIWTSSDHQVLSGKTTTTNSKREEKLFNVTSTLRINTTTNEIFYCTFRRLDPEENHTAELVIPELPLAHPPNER
Procedure: Example A: PD-1/PD-L1 Homogeneous Time-Resolved Fluorescence (HTRF) Binding Assay
Assays were performed in standard black 384-well polystyrene plates and a final volume was 20 μL. The inhibitor was first serially diluted with DMSO and added to the wells of the plate, followed by the addition of other reaction components. The final concentration of DMSO in the assay was 1%. Assays were performed at 25° C. in PBS buffer (pH 7.4) containing 0.05% Tween-20 and 0.1% BSA. Recombinant human PD-L1 protein (19-238) with a His-tagged at the C-terminus was purchased from AcroBiosystems (PD1-H5229). Recombinant human PD-1 protein (25-167) with an Fc tag at the C-terminus was also purchased from AcroBiosystems (PD1-H5257). The PD-L1 and PD-1 proteins were diluted in assay buffer and then […] of the solution was extracted and added to the wells of the plate. Plates were centrifuged and proteins and inhibitors were preincubated for 40 minutes. After incubation, 0.1 μl of HTRF detection buffer containing europium […] labeled anti-human IgG (PerkinElmer-AD0212), Fc-specific and anti-His SureLight®-Allophycocyanin (APC, PerkinElmer-AD0059H) conjugated antibodies was added. After centrifugation, the plates were incubated at 25° C. for 60 minutes. Data was read in a PHERAstar FS plate reader (665 nm/620 nm ratio). Final concentrations in the assay were ˜3 nM PD1, 10 nM PD-L1, 1 nM europium anti-human IgG, and 20 nM anti-His-allophycocyanin. Activity data were fitted using GraphPad Prism 5_0 software to derive IC50 values for inhibitors.

IC50, ≤ 10 nM:
COc1nc(O[C@H]2CCc3c(-c4cccc(-c5nc6cc7c(c(C#N)c6o5)CC[C@H]7N5CC[C@@H](C(=O)NS(=O)(=O)C6CC6)C5)c4C)cccc32)ccc1CN1CC[C@@H](O)C1 [Compound 094]
COc1nc(O[C@H]2CCc3c(-c4cccc(-c5nc6cc7c(c(C#N)c6o5)CCC7N5CC[C@@H](C(=O)O)C5)c4Cl)cccc32)c(Cl)cc1CN1CC[C@@H](O)C1 (stereo partly drawn) [Compound 005]
COc1nc(O[C@H]2CCc3c(-c4cccc(-c5nc6cc7c(c(C#N)c6o5)CC[C@H]7N5CC[C@@H](C(=O)O)C5)c4Cl)cccc32)c(Cl)cc1CN1CC[C@@H](O)C1 [Compound 006]
COc1nc(O[C@H]2CCc3c(-c4cccc(-c5nc6cc7c(c(C#N)c6o5)CC[C@H]7N5CC[C@@H](C(=O)NS(=O)(=O)C6CC6)C5)c4Cl)cccc32)ccc1CN1CC[C@@H](O)C1 [Compound 093]
COc1nc(O[C@H]2CCc3c(-c4cccc(-c5nc6cc7c(c(C#N)c6o5)CC[C@H]7N5CC[C@@H](C(=O)O)C5)c4C)cccc32)ccc1CN1CC[C@@H](O)C1 [Compound 091]
COc1nc(O[C@H]2CCc3c(-c4cccc(-c5nc6cc7c(c(C#N)c6o5)CC[C@H]7N5CC[C@@H](C(=O)NS(=O)(=O)C6(C)CC6)C5)c4C)cccc32)c(Cl)cc1CN1CC2(CCC(=O)N2)C1 [Compound 090]
COc1nc(O[C@H]2CCc3c(-c4cccc(-c5nc6cc7c(c(C#N)c6o5)CC[C@H]7N5CC[C@@H](C(=O)NS(=O)(=O)C6(C)CC6)C5)c4C)cccc32)c(Cl)cc1CN1CC[C@@H](O)C1 [Compound 098]
COc1nc(O[C@H]2CCc3c(-c4cccc(-c5cc6cc7c(c(C#N)c6o5)CCC7N5CC[C@@H](C(=O)O)C5)c4C)cccc32)ccc1CN1CC[C@@H](O)C1 (stereo partly drawn) [Compound 001]
COc1nc(O[C@H]2CCc3c(-c4cccc(-c5nc6cc7c(c(C#N)c6o5)CC[C@H]7N5CC[C@@H](C(=O)NS(=O)(=O)C6(C)CC6)C5)c4C)cccc32)ccc1CN1CC[C@@H](O)C1 [Compound 095]
COc1nc(O[C@H]2CCc3c(-c4cccc(-c5nc6cc7c(c(C#N)c6o5)CCC7N5CC[C@@H](C(=O)O)C5)c4Cl)cccc32)ccc1CN1CC[C@@H](O)C1 (stereo partly drawn) [Compound 004]
COc1nc(O[C@H]2CCc3c(-c4cccc(-c5nc6cc7c(c(C#N)c6o5)CC[C@H]7N5CC[C@@H](C(=O)NS(=O)(=O)C6CC6)C5)c4C)cccc32)c(Cl)cc1CN1CC[C@@H](O)C1 [Compound 079]
COc1nc(O[C@H]2CCc3c(-c4cccc(-c5nc6cc7c(c(C#N)c6o5)CC[C@H]7N5CC[C@@H](C(=O)O)C5)c4Cl)cccc32)ccc1CN1CC[C@@H](O)C1 [Compound 092]
COc1nc(O[C@H]2CCc3c(-c4cccc(-c5nc6cc7c(c(C#N)c6o5)CC[C@H]7N5CC[C@@H](C(=O)NS(=O)(=O)C6(C)CC6)C5)c4Cl)cccc32)c(Cl)cc1CN1CC[C@@H](O)C1 [Compound 096]
COc1nc(O[C@H]2CCc3c(-c4cccc(-c5nc6cc7c(c(C#N)c6o5)CC[C@H]7N5CC[C@@H](C(=O)NS(=O)(=O)C6(C)CC6)C5)c4Cl)cccc32)ccc1CN1CC[C@@H](O)C1 [Compound 097]
COc1nc(O[C@H]2CCc3c(-c4cccc(-c5nc6cc7c(c(C#N)c6o5)CC[C@H]7N5CC[C@@H](C(=O)NS(=O)(=O)C6CC6)C5)c4C)cccc32)c(C(F)F)cc1CN1CC[C@@H](O)C1 [Compound 087]
COc1nc(O[C@H]2CCc3c(-c4cccc(-c5nc6cc7c(c(C#N)c6o5)CC[C@H]7N5CC[C@@H](C(=O)O)C5)c4Cl)cccc32)c(C(F)F)cc1CN1CC[C@@H](O)C1 [Compound 086]
COc1nc(O[C@H]2CCc3c(-c4cccc(-c5nc6cc7c(c(C#N)c6o5)CC[C@H]7N5CC[C@@H](C(=O)NS(=O)(=O)C6CC6)C5)c4Cl)cccc32)c(Cl)cc1CN1CC2(CCC(=O)N2)C1 [Compound 083]
COc1nc(O[C@H]2CCc3c(-c4cccc(-c5nc6cc7c(c(C#N)c6o5)CC[C@H]7N5CC[C@@H](C(=O)NS(=O)(=O)C6CC6)C5)c4Cl)cccc32)c(Cl)cc1CNC[C@H]1CCC(=O)N1 [Compound 081]
COc1nc(O[C@H]2CCc3c(-c4cccc(-c5nc6cc7c(c(C#N)c6o5)CC[C@H]7N5CC[C@@H](C(=O)NS(=O)(=O)C6CC6)C5)c4Cl)cccc32)c(C(F)F)cc1CN1CC[C@@H](O)C1 [Compound 088]
COc1nc(O[C@H]2CCc3c(-c4cccc(-c5nc6cc7c(c(C#N)c6o5)CCC7N5CC[C@@H](C(=O)O)C5)c4C)cccc32)ccc1CN1CC[C@@H](O)C1 (stereo partly drawn) [Compound 003]
COc1nc(O[C@H]2CCc3c(-c4cccc(-c5cc6cc7c(c(C#N)c6o5)CC[C@H]7N5CC[C@@H](C(=O)NS(=O)(=O)C6CC6)C5)c4C)cccc32)c(Cl)cc1CN1CC[C@@H](O)C1 [Compound 080]
